Measurements: the Kinase Knowledgebase extract (Sharma et al. 2016)

Target: EGFR (human) (UniProt P00533)
Sequence (P00533 whole entry, looked up): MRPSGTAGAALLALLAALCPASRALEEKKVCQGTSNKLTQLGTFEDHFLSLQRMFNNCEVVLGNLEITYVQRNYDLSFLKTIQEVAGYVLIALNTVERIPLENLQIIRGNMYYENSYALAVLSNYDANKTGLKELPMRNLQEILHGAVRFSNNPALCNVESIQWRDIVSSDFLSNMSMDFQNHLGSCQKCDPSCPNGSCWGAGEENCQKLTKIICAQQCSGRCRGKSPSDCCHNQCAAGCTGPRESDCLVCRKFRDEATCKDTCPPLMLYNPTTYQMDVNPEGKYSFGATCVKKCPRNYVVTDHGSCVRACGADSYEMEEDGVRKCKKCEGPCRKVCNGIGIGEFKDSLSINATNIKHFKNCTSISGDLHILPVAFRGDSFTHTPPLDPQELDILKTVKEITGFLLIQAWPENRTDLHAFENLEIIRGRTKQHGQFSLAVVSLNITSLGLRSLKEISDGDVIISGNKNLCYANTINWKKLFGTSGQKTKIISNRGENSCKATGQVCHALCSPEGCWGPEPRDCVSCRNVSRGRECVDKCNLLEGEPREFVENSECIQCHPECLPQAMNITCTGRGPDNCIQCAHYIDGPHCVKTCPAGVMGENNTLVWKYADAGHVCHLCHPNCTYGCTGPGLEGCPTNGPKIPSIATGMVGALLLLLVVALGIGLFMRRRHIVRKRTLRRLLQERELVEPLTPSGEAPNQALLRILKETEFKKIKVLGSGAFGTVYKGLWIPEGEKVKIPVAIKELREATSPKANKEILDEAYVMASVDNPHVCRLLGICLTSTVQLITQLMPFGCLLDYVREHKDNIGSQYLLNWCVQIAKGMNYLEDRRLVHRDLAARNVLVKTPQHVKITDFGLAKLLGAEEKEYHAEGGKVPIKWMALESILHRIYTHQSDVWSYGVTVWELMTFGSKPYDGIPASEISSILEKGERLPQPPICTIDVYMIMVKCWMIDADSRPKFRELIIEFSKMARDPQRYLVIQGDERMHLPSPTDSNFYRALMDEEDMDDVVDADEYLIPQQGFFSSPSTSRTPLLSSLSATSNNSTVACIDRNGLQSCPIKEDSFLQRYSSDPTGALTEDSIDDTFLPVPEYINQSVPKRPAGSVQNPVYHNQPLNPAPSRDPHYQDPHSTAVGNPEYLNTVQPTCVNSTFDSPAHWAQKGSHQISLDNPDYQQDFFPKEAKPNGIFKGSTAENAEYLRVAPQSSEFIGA

IC50	Structure (SMILES)
1.5 nM	C=CC(=O)Nc1cc2c(Nc3ccc(F)c(Cl)c3)ncnc2cc1C#CC(C)(C)N1CCN(CCOC)CC1
3.2 nM	C=CC(=O)Nc1cc2c(Nc3ccc(F)c(Cl)c3)ncnc2cc1C#CC(C)(C)N1CCCN(C)CC1
4.6 nM	C=CC(=O)Nc1cc2c(Nc3ccc(F)c(Cl)c3)ncnc2cc1C#CC(C)(C)N1CCC(OC)CC1
4.4 nM	C=CC(=O)Nc1cc2c(Nc3ccc(F)c(Cl)c3)ncnc2cc1C#CC(COCC)(COCC)N1CCN(C)CC1
2.1 nM	C=CC(=O)Nc1cc2c(Nc3ccc(F)c(Cl)c3)ncnc2cc1C#CC(CC)(CC)N1CCN(C)CC1
3.3 nM	C=CC(=O)Nc1cc2c(Nc3ccc(F)c(Cl)c3)ncnc2cc1C#CC(C)(C)N1CCN(CC)CC1
< 1 nM	C=CC(=O)Nc1cc2c(Nc3ccc(F)c(Cl)c3)ncnc2cc1C#CC(C)(C)N1CCN(C(C)=O)CC1
1.8 nM	C=CC(=O)Nc1cc2c(Nc3ccc(F)c(Cl)c3)ncnc2cc1C#CC(C)(C)N1CCC(=O)CC1
1.8 nM	C=CC(=O)Nc1cc2c(Nc3ccc(F)c(Cl)c3)ncnc2cc1C#CC(C)(C)N1CCN(C)CC1
1.9 nM	C=CC(=O)Nc1cc2c(Nc3ccc(F)c(Cl)c3)ncnc2cc1C#CC(C)(C)N1CCN(S(C)(=O)=O)CC1
2.9 nM	CN(C)CCN(C)C(C)(C)C#Cc1cc2ncnc(Nc3ccc(F)c(Cl)c3)c2cc1NS(C)(=O)=O
3.5 nM	C=CC(=O)Nc1cc2c(Nc3ccc(F)c(Cl)c3)ncnc2cc1C#CC(C)(C)N(CCOC)CCOC
3.1 nM	COCCN(C)C(C)(C)C#Cc1cc2ncnc(Nc3ccc(F)c(Cl)c3)c2cc1NS(C)(=O)=O
1.9 nM	C=CC(=O)Nc1cc2c(Nc3ccc(F)c(Cl)c3)ncnc2cc1C#CC(C)(C)N1CCC(O)CC1
6.7 nM	COCCN(CCOC)C(C)(C)C#Cc1cc2ncnc(Nc3ccc(F)c(Cl)c3)c2cc1NS(C)(=O)=O
2.4 nM	C=CC(=O)Nc1cc2c(Nc3ccc(F)c(Cl)c3)ncnc2cc1C#CC(C)(C)N(C)CCN(C)C
3.7 nM	C=CC(=O)Nc1cc2c(Nc3ccc(F)c(Cl)c3)ncnc2cc1C#CC(C)(C)N(C)CCOC
2.6 nM	C=CC(=O)Nc1cc2c(Nc3ccc(F)c(Cl)c3)ncnc2cc1C#CC(C)(C)N1CCCC1
2.9 nM	C=CC(=O)Nc1cc2c(Nc3ccc(F)c(Cl)c3)ncnc2cc1C#CC(C)(C)N1CCN(CCC#N)CC1
2.6 nM	C=CC(=O)Nc1cc2c(Nc3ccc(F)c(Cl)c3)ncnc2cc1C#CC(C)(C)N(CC)CCC(=O)OC

The remaining lines, values behind:

Structure (SMILES)	IC50
COc1cc2ncnc(Nc3cccc(C(C)=O)c3)c2cc1C#CC(C)(C)N1CCN(C)CC1	> 10 nM
CN1CCN(CCC#Cc2cc3ncnc(Nc4ccc(F)c(Cl)c4)c3cc2NS(C)(=O)=O)CC1	< 1 nM
CC(C)(C#Cc1cc2ncnc(Nc3ccc(F)c(Cl)c3)c2cc1NS(C)(=O)=O)N1CCN(S(C)(=O)=O)CC1	2.1 nM
CN1CCCN(C(C)(C)C#Cc2cc3ncnc(Nc4ccc(F)c(Cl)c4)c3cc2NS(C)(=O)=O)CC1	1.9 nM
C=CC(=O)Nc1cc2c(Nc3ccc(F)c(Cl)c3)ncnc2cc1C#CCN1CCOCC1	< 1 nM
C=CC(=O)Nc1cc2c(Nc3ccc(F)c(Cl)c3)ncnc2cc1C#CCCN1CCOCC1	< 1 nM
C=CC(=O)Nc1cc2c(Nc3ccc(F)c(Cl)c3)ncnc2cc1C#CCN1CCN(C)CC1	< 1 nM
CS(=O)(=O)Nc1cc2c(Nc3ccc(F)c(Cl)c3)ncnc2cc1C#CCCN1CCOCC1	< 1 nM
CC(=O)N1CCN(C(C)(C)C#Cc2cc3ncnc(Nc4ccc(F)c(Cl)c4)c3cc2NS(C)(=O)=O)CC1	2.1 nM
C=CC(=O)Nc1cc2c(Nc3ccc(F)c(Cl)c3)ncnc2cc1C#CC1(N2CCN(C)CC2)CCCCC1	2.4 nM
C#Cc1cccc(Nc2ncnc3cc(OCC)c(C#CC(C)(C)N4CCN(C(C)=O)CC4)cc23)c1	> 10 nM
CC(C)(C#Cc1cc2ncnc(Nc3ccc(F)c(Cl)c3)c2cc1NS(C)(=O)=O)N1CCC(=O)CC1	2.1 nM
CCOCC(C#Cc1cc2ncnc(Nc3ccc(F)c(Cl)c3)c2cc1NS(C)(=O)=O)(COCC)N1CCN(C)CC1	10.3 nM
C=CC(=O)Nc1cc2c(Nc3ccc(F)c(Cl)c3)ncnc2cc1/C=C/CCN1CCN(C)CC1	< 1 nM
CCOc1cc2ncnc(Nc3ccc(F)c(Cl)c3)c2cc1C#CC(C)(C)N(C)C1CCN(C)CC1	3.8 nM
C#Cc1cccc(Nc2ncnc3cc(OCC)c(C#CC(C)(C)N(C)C4CCN(C)CC4)cc23)c1	3.2 nM
COC1CCN(C(C)(C)C#Cc2cc3ncnc(Nc4ccc(F)c(Cl)c4)c3cc2NS(C)(=O)=O)CC1	5.3 nM
CCOCC(C#Cc1cc2c(Nc3ccc(F)c(Cl)c3)ncnc2cc1OCC)(COCC)N1CCN(C)CC1	> 10 nM
CCOc1cc2ncnc(Nc3ccc(F)c(Cl)c3)c2cc1C#CCCN1CCN(C)CC1	1.2 nM
CN1CCN(CC#Cc2cc3ncnc(Nc4ccc(F)c(Cl)c4)c3cc2NS(C)(=O)=O)CC1	< 1 nM
